Results on 4 compounds are retold here after paper PMC6264549, “Synthesis and Biological Evaluation of 3-Substituted-indolin-2-one Derivatives Containing Chloropyrrole Moieties” (Molecules, 2011).

For one data set, the system named is oral epithelial (KB). In words: MTT cell growth inhibition assay, KB. The conditions noted are these: Homo sapiens, 48 h, KB cells, two days. It is filed as cell-based. As to the method:
(§1) The antitumor activities of 14a-r were evaluated in vitro on four tumor cell lines, including non-small cell lung cancer (A549), oral epithelial (KB), melanoma (K111) and large cell lung cancer cell lines (NCI-H460) by the MTT assay, and the results are summarized in Table 1.
(§2) Non-small cell lung cancer (A549), oral epithelial (KB), large cell lung cancer (NCI-H460) and melanoma cell lines (K111) were cultured in Dulbecco’s modified Eagle medium (GIBCO) containing 10% (v/v) inactivated newborn calf serum (Boren Bio-Pharmaceutical Co., Ltd.: Guangzhou, China), […] L-glutamine (SANGON), […] penicillin, 100 µg/mL streptomycin. Cells were grown in a 5% CO2 incubator at 37 °C.
(§3) The antitumor activities were determined by the MTT assay. Cells (2 × 10^3 cells/well) were seeded in 96-well plates. After incubation overnight, each compound, which was dissolved in dimethylsulfoxide (DMSO) and diluted with phosphate buffer solution (PBS), was added to each well and the cells were cultured for another two days at 37 °C. 20 μL (5 mg/mL) MTT solution was added to per well and the culture continued for another 3–4 h. The medium was removed and 100 μL DMSO was added to dissolve formazan crystals. Absorbance was measured at 492 nm using an ELISA reader (Thermo). The antitumor activities were expressed as IC50.

Data set [1] concerns non-small cell lung cancer (A549). Briefly: MTT cell growth inhibition assay, A549. The note with it: Homo sapiens, 48 h, A549 cells, two days, read-out: IC50 ± SD A549. It is filed as cell-based. As for the experimental part: as §1, §2, §3
The subject of the next data set is melanoma (K111). In words: MTT cell growth inhibition assay, K111. The data set is classed as cell-based. The note with it: 48 h, K111 cells, two days, read-out: IC50 ± SD K111. As to the method: as §1, §2, §3
Data set [2] has as its system large cell lung cancer cell lines (NCI-H460). Briefly: MTT cell growth inhibition assay, NCI-H460. The note with it: Homo sapiens, 48 h, NCI-H460 cells, two days, read-out: IC50 ± SD NCI-H460. The data set is classed as cell-based. As for the experimental part: as §1, §2, §3
In a further data set the target is hERG potassium currents (Homo sapiens, UniProt Q12809). Briefly: Inhibition of hERG potassium currents in HEK239 cells (cardiotoxicity). On the technique in general: hERG is a cardiac potassium channel; its block is linked to QT prolongation.
Another data set has as its target VEGFR2 tyrosine kinase (Homo sapiens, UniProt P35968). Briefly: VEGFR2 inhibition assay (ELISA). The data set is classed as biochemical. The conditions noted are these: 5.0 µM ATP, Poly (Glu, Tyr)4:1 substrate, read-out: IC50 ± SD VEGFR2. As to the method:
Seven compounds in the 14a–r series with low IC50 values on the tumor cell lines were evaluated for their inhibition of VEGFR2 using an enzyme-linked immunosorbent assay (ELISA), and the data are summarized in Table 2.
The VEGFR2 inhibition assay was performed by enzyme-linked immunosorbent assay (ELISA) in 96-well plates pre-coated with 2.5 µg/well Poly (Glu, Tyr)4:1 as a substrate. Each well was treated with 90 µL of 5.0 µM ATP (Amresco) solution and 10 µL of one of the seven compounds at varying concentrations, which were diluted in reaction buffer (50 mM HEPES pH 7.4, 20 mM MgCl2, 0.1 mM Na3VO4, 1 mM DTT). […] The reaction was initiated by adding 1 µL/well of VEGFR2 tyrosine kinase. After incubation for 1 h at 37 °C, the plates were washed three times with phosphate buffered saline containing 0.1% Tween-20 (T-PBS). Next, anti-phosphotyrosine (PY99; 1:1,000 dilution, 100 μL/well) antibody was added. After 1 h incubation at room temperature, the plates were washed three times, and goat anti-mouse IgG horseradish peroxidase (100 μL/well of 1:2,000 dilution) diluted in T-PBS was added. The plates were reincubated at room temperature for 1 h, and washed as before. Finally, color development solution (0.03% H2O2 and 2 mg/mL o-phenylenediamine in 0.1 M citrate buffer, pH 5.5, 100 µL/well) was added and the plates were incubated at room temperature until color emerged. The reaction was terminated by the addition of 2 M H2SO4 (50 µL/well), and A492 was measured using a tunable wavelength microplate reader (Molecular Devices SPECTRAMAX190). The inhibition rate was calculated using the equation: [1 − (A492/A492 control)] × 100%.
(In general: ELISA stands for enzyme-linked immunosorbent assay.)

The conditions of data set [3]: sunitinib-treated patients, pivotal phase III metastatic renal cell carcinoma trial; cited from earlier work.

Sequence of VEGFR2 tyrosine kinase (P35968 20-1356): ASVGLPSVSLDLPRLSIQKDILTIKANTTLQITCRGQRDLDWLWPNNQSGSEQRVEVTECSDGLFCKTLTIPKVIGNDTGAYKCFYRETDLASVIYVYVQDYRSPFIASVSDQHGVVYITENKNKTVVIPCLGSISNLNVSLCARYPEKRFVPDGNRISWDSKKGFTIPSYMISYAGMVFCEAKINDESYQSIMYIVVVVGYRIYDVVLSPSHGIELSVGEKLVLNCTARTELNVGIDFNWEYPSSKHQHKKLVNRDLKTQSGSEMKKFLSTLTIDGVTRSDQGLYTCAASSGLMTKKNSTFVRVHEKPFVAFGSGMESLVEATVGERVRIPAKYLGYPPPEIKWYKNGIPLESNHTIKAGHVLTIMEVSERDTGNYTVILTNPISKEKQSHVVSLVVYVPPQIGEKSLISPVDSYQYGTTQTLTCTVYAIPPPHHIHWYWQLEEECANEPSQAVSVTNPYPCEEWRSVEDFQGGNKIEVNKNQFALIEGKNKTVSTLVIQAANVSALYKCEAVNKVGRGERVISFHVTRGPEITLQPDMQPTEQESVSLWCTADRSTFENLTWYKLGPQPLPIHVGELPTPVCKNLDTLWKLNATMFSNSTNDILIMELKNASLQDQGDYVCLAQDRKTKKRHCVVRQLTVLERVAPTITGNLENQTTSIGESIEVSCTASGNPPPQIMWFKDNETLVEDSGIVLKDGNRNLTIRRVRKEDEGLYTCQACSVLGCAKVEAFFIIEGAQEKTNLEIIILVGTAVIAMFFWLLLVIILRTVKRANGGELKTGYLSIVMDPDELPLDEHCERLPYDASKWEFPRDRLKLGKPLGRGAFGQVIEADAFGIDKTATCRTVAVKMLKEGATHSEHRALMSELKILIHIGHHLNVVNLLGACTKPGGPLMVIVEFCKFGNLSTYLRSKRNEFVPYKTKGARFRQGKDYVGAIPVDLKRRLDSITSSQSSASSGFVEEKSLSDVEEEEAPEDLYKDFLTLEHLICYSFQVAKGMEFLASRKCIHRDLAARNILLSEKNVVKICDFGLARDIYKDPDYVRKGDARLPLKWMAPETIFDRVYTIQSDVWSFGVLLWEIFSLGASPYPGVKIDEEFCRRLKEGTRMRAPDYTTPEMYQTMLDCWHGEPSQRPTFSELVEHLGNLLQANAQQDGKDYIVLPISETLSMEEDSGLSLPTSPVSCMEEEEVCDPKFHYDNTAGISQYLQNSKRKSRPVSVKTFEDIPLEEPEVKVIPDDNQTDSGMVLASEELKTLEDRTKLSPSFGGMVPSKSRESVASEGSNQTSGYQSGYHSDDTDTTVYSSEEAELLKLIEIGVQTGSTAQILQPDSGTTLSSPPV
Sequence of hERG potassium currents (Q12809 whole entry): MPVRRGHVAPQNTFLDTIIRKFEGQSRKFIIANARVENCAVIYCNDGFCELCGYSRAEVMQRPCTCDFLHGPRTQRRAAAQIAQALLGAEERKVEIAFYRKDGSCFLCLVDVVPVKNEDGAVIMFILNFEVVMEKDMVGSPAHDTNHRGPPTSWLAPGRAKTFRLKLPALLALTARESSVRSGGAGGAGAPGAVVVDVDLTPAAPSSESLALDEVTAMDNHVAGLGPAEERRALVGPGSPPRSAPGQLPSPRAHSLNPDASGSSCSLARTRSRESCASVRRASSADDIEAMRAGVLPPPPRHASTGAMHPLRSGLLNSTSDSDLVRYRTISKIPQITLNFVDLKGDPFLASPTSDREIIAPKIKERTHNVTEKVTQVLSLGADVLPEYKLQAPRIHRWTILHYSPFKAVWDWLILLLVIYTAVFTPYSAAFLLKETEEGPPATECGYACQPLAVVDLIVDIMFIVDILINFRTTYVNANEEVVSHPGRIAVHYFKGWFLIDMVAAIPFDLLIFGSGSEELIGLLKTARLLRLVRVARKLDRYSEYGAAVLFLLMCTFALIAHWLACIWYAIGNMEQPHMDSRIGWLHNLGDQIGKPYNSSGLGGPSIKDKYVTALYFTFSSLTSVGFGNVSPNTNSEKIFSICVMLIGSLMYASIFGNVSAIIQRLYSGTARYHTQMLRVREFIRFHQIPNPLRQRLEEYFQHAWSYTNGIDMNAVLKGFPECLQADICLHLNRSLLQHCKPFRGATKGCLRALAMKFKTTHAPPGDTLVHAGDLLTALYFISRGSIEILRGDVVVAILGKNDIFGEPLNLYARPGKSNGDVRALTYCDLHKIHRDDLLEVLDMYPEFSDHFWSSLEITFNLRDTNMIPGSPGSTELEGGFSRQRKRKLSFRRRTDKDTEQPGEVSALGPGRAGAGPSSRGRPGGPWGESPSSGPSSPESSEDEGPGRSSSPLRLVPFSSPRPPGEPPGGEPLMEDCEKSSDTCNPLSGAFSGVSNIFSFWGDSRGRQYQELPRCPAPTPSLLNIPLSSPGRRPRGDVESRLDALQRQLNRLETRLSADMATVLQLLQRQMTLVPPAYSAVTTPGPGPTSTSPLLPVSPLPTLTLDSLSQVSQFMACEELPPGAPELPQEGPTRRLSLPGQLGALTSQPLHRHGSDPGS

As usually defined, the melting point is the temperature, or range, at which the solid turns liquid. By IC50 is commonly meant the concentration that gives 50% inhibition. `CCNCCNC(=O)c1c(C)[nH]c(/C=C2\C(=O)Nc3ccc(F)cc32)c1Cl` [Compound 14g, (Z)-4-Chloro-N-(2-(ethylamino)ethyl)-5-((5-fluoro-2-oxoindolin-3-ylidene)methyl)-2-methyl-1H-pyrrole-3-carboxamide] displayed a melting point of 211 to 211.8 °C. In the data set with oral epithelial (KB), inhibition was half-maximal at 670 ± 80 nM (IC50). Also, the 50% inhibitory concentration (IC50) in data set [1] amounted to 1030 ± 90 nM. The half-inhibitory concentration (IC50) with melanoma (K111) is 1190 ± 210 nM. Moreover, in data set [2], the 50% inhibitory concentration (IC50) was found to be 1.41 ± 0.09 µM. This compound had a concentration for half-maximal inhibition (IC50) against hERG potassium currents of 430 nM. Besides, on VEGFR2 tyrosine kinase, the IC50 is 5 ± 1.1 nM.
`CCN(CC)CCNC(=O)c1c(C)[nH]c(/C=C2\C(=O)Nc3ccc(F)cc32)c1Cl` [Compound 14h, (Z)-4-Chloro-N-(2-(diethylamino)ethyl)-5-((5-fluoro-2-oxoindolin-3-ylidene)methyl)-2-methyl-1H-pyrrole-3-carboxamide]: the melting point was 245.6 to 246.9 °C. The midpoint of inhibition in the data set on oral epithelial (KB), the IC50, lay at 1250 ± 100 nM. For the same compound, in data set [1], the IC50 worked out at 1870 ± 260 nM. For the same compound, the IC50 in the data set with melanoma (K111) is 1790 ± 120 nM. Also, the half-maximal inhibitory concentration (IC50) in data set [2] was determined as 32.1 ± 3.83 µM. Besides, inhibition against hERG potassium currents was half-maximal at 452 nM (IC50). In addition, on VEGFR2 tyrosine kinase, the IC50 was found to be 6.8 ± 0.8 nM.
As to `CCNCCNC(=O)c1c(Cl)[nH]c(/C=C2\C(=O)Nc3ccc(F)cc32)c1CC` [Compound 14r, (Z)-2-Chloro-4-ethyl-N-(2-(ethylamino)ethyl)-5-((5-fluoro-2-oxoindolin-3-ylidene)methyl)-1H-pyrrole-3-carboxamide], the melting point lay in the range of 232 to 233.1 °C. Half-maximal inhibition in the data set on oral epithelial (KB) (IC50) was put at 1430 ± 210 nM. Besides, the IC50 in data set [1] worked out at 1490 ± 110 nM. The IC50 in the data set with melanoma (K111) turned out to be 3720 ± 460 nM. Besides, the IC50 in data set [2] is 1.22 ± 0.1 µM. For the same compound, the half-inhibitory concentration (IC50) at VEGFR2 tyrosine kinase turned out to be 8.7 ± 1.3 nM.
For the compound `CCN(CC)CCNC(=O)c1c(C)[nH]c(/C=C2\C(=O)Nc3ccc(F)cc32)c1C` [Sunitinib, sunitinib, reference compound], the “patients who experienced a decline in LVEF to below normal” value in data set [3] is reported as 21%. The 50% inhibitory concentration (IC50) worked out at 2600 ± 180 nM with oral epithelial (KB), 2930 ± 250 nM in data set [1], 3830 ± 430 nM in the data set with melanoma (K111) and 4.79 ± 0.62 µM in data set [2].
